Assay results reported in patent EP0033503A2, “Medicaments with cytostatic activity and use of cyclic compounds, in which the heterocyclic N-ring atoms are substituted by several glycidyl groups, in pharmaceutical compositions” (Henkel Kommanditgesellschaft auf Aktien, priority 1980, dated 1981).
Where two headings read alike, the source gives them in different places.

Test system: Tumorart P 388 (Leukämie)
Assay: Survival of mice bearing P 388 leukemia (NCI protocol 1200), T/C
Format: in vivo, Maus
Details: for response vs control in vivo at 50 mg/kg / response vs control in vivo at 100 mg/kg / response vs control in vivo at 200 mg/kg / response vs control in vivo at 25 mg/kg: Mus musculus; for response vs control in vivo at 25 mg/kg: P388, read-out: Testergebnis T/C (T/C-Wert), 25 mg/kg; for Testergebnis in % T/C: repeat experiment
Text: Die nachfolgenden Versuche wurden durchgeführt nach Testvorschriften des National Cancer Institute Bethesda, Maryland 200014, veröffentlicht in Cancer Chemotherapy Reports" Part. 3, September 1972, Vol. 3, Nr. 2. Als Wirksubstanz wurde 1,3-Diglycidyl-benzimidazolon des i vorstehenden Beispiels 1 verwendet. Die Substanz wurde als wäßrige, 1%ige Injektionslösung unmittelbar vor der Applikation frisch hergestellt.
Bei Mäusen wurde gemäß Protokoll 1200 (Seite 91, c.) die Tumorart P 388 (Leukämie) i.p. mit 10^6 Zellen/Maus gesetzt. Die unbehandelten Tiere hatten eine mittlere überlebensdauer von 9,9 Tagen.
Es wird der Wirkstoff appliziert. Der Wirkstoff wird dabei in 9.Gaben in unterschiedlichen Versuchsreihen einmal zu je 200 mg/kg und in einer anderen zu 100 mg/kg und in einer dritten Versuchsreihe zu je 50 mg/kg verabreicht. In beiden Fällen wird eine signifikante Verlängerung der Lebensdauer der behandelten Testtiere gegenüber der Kontrollgruppe der nicht behandelten Tiere erzielt. […] Bei der Testgruppe mit der Dosis von 100 mg/kg beträgt die durchschnittliche Lebenserwartung der Versuchstiere 18 Tage, T/C 181 %. Die Gruppe mit der Dosis 50 mg/kg hatte eine durchschnittliche Lebenserwartung von 15,3 Tagen, T/C 154 %. […]

[1] = P388, 50 mg/kg per single dose, first series, unit inferred, read-out: Testergebnis T/C (T/C-Wert)
[2] = P388, 100 mg/kg per single dose, first series, unit inferred, read-out: Testergebnis T/C (T/C-Wert)
[3] = P388, 200 mg/kg per single dose, first series, unit inferred, read-out: Testergebnis T/C (T/C-Wert)
[4] = P388, 100 mg/kg per single dose, 9 doses, first test series, read-out: Verlängerungsrate T/C (Testergebnis in % T/C)
[5] = P388, read-out: Testergebnis T/C (T/C-Wert), 50 mg/kg per single dose, first series, unit inferred
[6] = P388, read-out: Testergebnis T/C (T/C-Wert), 50 mg/kg, second series, unit inferred
[7] = P388, read-out: Testergebnis T/C (T/C-Wert), 100 mg/kg per single dose, first series, unit inferred
[8] = P388, read-out: Testergebnis T/C (T/C-Wert), 100 mg/kg, second series, unit inferred
[9] = P388, read-out: Testergebnis T/C (T/C-Wert), 200 mg/kg per single dose, first series, unit inferred
[10] = P388, read-out: Testergebnis T/C (T/C-Wert), 200 mg/kg, second series, unit inferred
[11] = 100 mg/kg per single dose, 9 doses
[12] = P388, 200 mg/kg per single dose, 9 doses, first test series, read-out: Verlängerungsrate T/C (Testergebnis in % T/C)

Work on `O=c1cnn(CC2CO2)c(=O)n1CC1CO1` (stereo not drawn) [Beispiel 20, 2,4-Diglycidyl-2,3,4,5-tetrahydro-1,2,4-triazin-3,5-dion] yielded a response vs control in vivo at 50 mg/kg [1] of 189% and a response vs control in vivo at 100 mg/kg [2] of 228%.

`O=c1ccn(CC2CO2)c(=O)n1Cn1c(=O)ccn(CC2CO2)c1=O` (stereo not drawn) [[drawing] the 18th table r17] was tested, and the response vs control in vivo at 50 mg/kg [1] was 115%, the response vs control in vivo at 100 mg/kg [2] was 139% and the response vs control in vivo at 200 mg/kg [3] was 186%.

With `O=c1n(CC2CO2)c2cc(Cl)c(Cl)cc2n1CC1CO1` (stereo not drawn) [R2 -Cl R3 -Cl, N,N-Diglycidyl-5,6-di-chlor-benzimidazolon] the response vs control in vivo at 50 mg/kg (P388, 50 mg/kg per single dose, 9 doses, first test series, read-out: Verlängerungsrate T/C (Testergebnis in % T/C)) was 158% and the response vs control in vivo at 100 mg/kg [4] was 120%.

Compound `O=c1c(Br)cn(CC2CO2)c(=O)n1CC1CO1` (stereo not drawn) [Diglycidyl-5-bromuracil, N,N'-Diglycidyl-5-bromuracil] has a response vs control in vivo at 50 mg/kg [1] of 173% and a response vs control in vivo at 100 mg/kg [2] of 193%.

`O=c1c(I)cn(CC2CO2)c(=O)n1CC1CO1` (stereo not drawn) [Diglycidyl-5-joduracil, N,N'-Diglycidyl-5-ioduracil] gave a response vs control in vivo at 50 mg/kg [1] of 124%, a response vs control in vivo at 100 mg/kg [2] of 166% and a response vs control in vivo at 200 mg/kg [3] of 189%.

`CC(C)CC1C(=O)N(CC2CO2)C(=O)N(CC2CO2)C1=O` (stereo not drawn) [Beispiel 11, 1,3-Diglycidyl-5-isobutylbarbitursäure] showed a response vs control in vivo at 25 mg/kg (second series, unit inferred) of 129%, a response vs control in vivo at 50 mg/kg [5] of 133% and a response vs control in vivo at 50 mg/kg [6] of 158%. For the same compound, the response vs control in vivo at 100 mg/kg [7] was 158%, the response vs control in vivo at 100 mg/kg [8] was 184% and the response vs control in vivo at 200 mg/kg [9] was 194%. The response vs control in vivo at 200 mg/kg [10] was 252%.

In the case of `CCC1(CC)C(=O)N(CC2CO2)C(=O)N(CC2CO2)C1=O` (stereo not drawn) [Beispiel 10, 1,3-Diglycidyl-5,5-diethylbarbitursäure], the “durchschnittliche Lebenserwartung der Versuchstiere” value (50 mg/kg per single dose, 9 doses) is reported as 15,3 Tage, the “durchschnittliche Lebenserwartung der Versuchstiere” value [11] is reported as 22 Tage and the response vs control in vivo at 25 mg/kg (second series, unit inferred) is reported as 94%. The response vs control in vivo at 50 mg/kg [5] was 147%, the response vs control in vivo at 50 mg/kg [6] was 111% and the response vs control in vivo at 100 mg/kg [7] was 211%. For the same compound, the response vs control in vivo at 100 mg/kg [8] was 158%, the response vs control in vivo at 200 mg/kg [10] was 230% and the response vs control in vivo at 50 mg/kg (P388, read-out: Verlängerungsrate T/C (Testergebnis in % T/C), 50 mg/kg per single dose, 9 doses, first test series) was 147%. It also gave a response vs control in vivo at 100 mg/kg (P388, read-out: Verlängerungsrate T/C (Testergebnis in % T/C), 100 mg/kg per single dose, 9 doses, first test series) of 211%.

With `O=C1N(CC2CO2)CCN1CC1CO1` (stereo not drawn) [Beispiel 18 a), Diglycidylethylenharnstcff] the response vs control in vivo at 25 mg/kg (second series, unit inferred) was 119%, the response vs control in vivo at 50 mg/kg [5] was 130% and the response vs control in vivo at 50 mg/kg [6] was 142%. For the same compound, the response vs control in vivo at 100 mg/kg [7] was 155%, the response vs control in vivo at 100 mg/kg [8] was 158% and the response vs control in vivo at 200 mg/kg [9] was 206%. For the same compound, the response vs control in vivo at 200 mg/kg [10] was 213%.

For `CN1C(=O)N(CC2CO2)C2C1N(CC1CO1)C(=O)N2C` (stereo not drawn) [Beispiel 5, 3,6 Diglycidyl-1,4-dimethylglykoluril], the “Verlängerungsrate T/C (Testergebnis in % T/C)” value (50 mg/kg per single dose, 9 doses, first test series) was 134%, the “durchschnittliche Lebenserwartung der Versuchstiere” value [11] was 15,8 Tage and the “Verlängerungsrate T/C (Testergebnis in % T/C)” value (100 mg/kg per single dose, 9 doses, first test series) was 157%. The “Verlängerungsrate T/C (Testergebnis in % T/C)” value (200 mg/kg per single dose, 9 doses, first test series) was 190%.

`O=C1N(CC2CO2)C(=O)C(c2ccccc2)(c2ccccc2)N1CC1CO1` (stereo not drawn) [R5 C6H5-R6 C6H5-, Diglycidyl-diphenylhydantoin] was tested, and the “Testergebnis in % T/C” value (100 mg/kg) was 136%, the “Testergebnis in % T/C” value (200 mg/kg) was 149% and the response vs control in vivo at 100 mg/kg [4] was 122%. The response vs control in vivo at 200 mg/kg [12] was 130%.

`CC1(C)C(=O)N(CC2CO2)C(=O)N1CN1C(=O)N(CC2CO2)C(=O)C1(C)C` (stereo not drawn) [[drawing] r20] was tested, and the response vs control in vivo at 200 mg/kg [12] was 153%.
